Laboratory results published in publication PMC10936602, “BaiJ and BaiB are key enzymes in the chenodeoxycholic acid 7α-dehydroxylation pathway in the gut microbe Clostridium scindens ATCC 35704” (Gut Microbes, 2024).

Assays:
BaiB = molecular target: T1, BaiB ([Clostridium] scindens, UniProt A0A494WIV0); experiment: LC/HRMS substrate depletion and detection of CoA conjugate; assay type: biochemical; conditions: CoA ligation; CoA and ATP; HEPES pH 7.5, anoxic, 18 h
T1 construct: recombinant in E. coli BL21-CodonPlus(DE3)-RIPL, pET28b+ or modified pET28b+, His and/or Strep tag
T1 sequence (A0A494WIV0 1-507): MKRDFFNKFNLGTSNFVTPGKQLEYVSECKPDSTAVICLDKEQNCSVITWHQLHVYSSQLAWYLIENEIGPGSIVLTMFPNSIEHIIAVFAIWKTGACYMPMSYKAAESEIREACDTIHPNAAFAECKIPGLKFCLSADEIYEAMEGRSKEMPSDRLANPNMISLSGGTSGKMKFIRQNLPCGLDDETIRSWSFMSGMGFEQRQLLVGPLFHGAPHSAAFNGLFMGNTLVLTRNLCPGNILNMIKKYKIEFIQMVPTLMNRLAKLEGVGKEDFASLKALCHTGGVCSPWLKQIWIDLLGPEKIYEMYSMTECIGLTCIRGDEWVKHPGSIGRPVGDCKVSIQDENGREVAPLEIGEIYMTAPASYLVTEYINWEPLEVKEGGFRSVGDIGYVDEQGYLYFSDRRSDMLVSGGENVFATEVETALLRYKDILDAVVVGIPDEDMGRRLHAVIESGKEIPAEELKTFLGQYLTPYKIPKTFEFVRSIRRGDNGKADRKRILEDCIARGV

BaiJ = molecular target: T2, BaiJ ([Clostridium] scindens, UniProt B0NCC6); experiment: LC/HRMS product quantification, single enzyme; assay type: biochemical; conditions: reduction; NAD, NADP, NADH, NADPH, FMN, FAD, CoA, ATP, ADP 500 μM each; HEPES pH 7.5, 37 °C, anoxic
T2 construct: gene urdA; recombinant in E. coli BL21-CodonPlus(DE3)-RIPL, pET28b+ or modified pET28b+, His and/or Strep tag, FAD and FMN added before lysis
T2 sequence (B0NCC6 1-563): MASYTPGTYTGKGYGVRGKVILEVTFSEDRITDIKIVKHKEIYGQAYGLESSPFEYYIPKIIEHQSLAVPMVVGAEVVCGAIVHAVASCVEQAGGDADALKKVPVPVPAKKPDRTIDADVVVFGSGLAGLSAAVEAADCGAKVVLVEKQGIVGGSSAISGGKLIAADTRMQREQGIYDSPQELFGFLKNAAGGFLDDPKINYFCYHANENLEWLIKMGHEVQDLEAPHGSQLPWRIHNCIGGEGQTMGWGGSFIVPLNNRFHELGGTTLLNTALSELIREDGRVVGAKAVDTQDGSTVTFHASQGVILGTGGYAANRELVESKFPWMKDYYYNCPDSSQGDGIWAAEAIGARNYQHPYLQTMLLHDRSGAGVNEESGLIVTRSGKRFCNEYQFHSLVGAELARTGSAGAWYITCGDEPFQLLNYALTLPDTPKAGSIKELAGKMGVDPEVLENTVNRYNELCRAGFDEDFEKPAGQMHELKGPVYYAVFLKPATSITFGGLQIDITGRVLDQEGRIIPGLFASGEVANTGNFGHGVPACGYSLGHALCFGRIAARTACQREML

Row | SMILES | LC/HRMS substrate depletion and detection of CoA conjugate (BaiB) | LC/HRMS product quantification, single enzyme (BaiJ)
1 | C[C@H](CCC(=O)O)[C@H]1CC[C@H]2[C@@H]3[C@H](O)CC4=CC(=O)CC[C@]4(C)[C@H]3CC[C@]12C [3-oxo-Δ^4-CDCA] | the concentration of 3-oxo-Δ^4-CDCA decreased significantly in the reaction with BaiB | 
2 | C[C@H](CCC(=O)O)[C@H]1CC[C@H]2[C@@H]3CCC4=CC(=O)CC[C@]4(C)[C@H]3CC[C@]12C [3-oxo-Δ^4-LCA] |  | BaiJ reduces 3-oxo-Δ^4-LCA and forms 3-oxo-allo-LCA as the only reduced product
